Test system: BDNF promoter IV / BDNF expression
Assay: BDNF expression in mouse cortical neurons (RT-qPCR)
Type: cell-based
Protocol: FIGS. 3A-3E depict targeted demethylation of BDNF promoter IV by dCas9-Tet1 to activate BDNF in neurons. FIG. 3A provides a schematic representation of targeting BDNF promoter IV by dCas9-Tet1 (dC-T) with specific gRNAs to erase methylation and activate BDNF expression. […] Bars are mean t SD of three biological replicates. FIG. 3C provides representative confocal images for BDNF induction in FIG. 3B. Top panel: BDNF expression was induced by 50 mM KCl treatment for 6 hrs. […] Stained in red for MAP2 (top two panels) or Cherry (bottom two panels), green for BDNF, blue for DAPI and grey for dCas9. Scale bar: 50 um. FIG. 3D depicts bisulfite sequencing of neurons in FIG. 3C. […] Shown is the mean percentage±SD of two biological replicates.
FIGS. 11A-11L depict targeted demethylation of BDNF promoter IV by dCas9-Tet1 in neurons. […] PAM for each gRNA is highlighted by a red box. […] Note that cultured neurons were treated with AraC on DIV2 to halt cell division in glial cells and neural progenitors. […] FIG. 11C provides EDU labeling analysis for the mouse primary neurons over the course of KCl treatment for 24 hrs. Note that extremely few EDU positive cells were observed. Stained in red for EDU, green for MAP2 and DAPI for nuclei. Scale bar: 500 um. FIG. 11D Upper panel: provides quantification of neuronal density over the course of KCl treatment. The post-mitotic neuron density remains steadily around 4.5×10^4/cm2 over time. Bars represent mean±SD of three experimental replicates. Lower panel: provides quantification of the EDU positive cells over the course of KCl treatment. Less than 2% of the cells are EDU-positive over 24 hrs. Bars represent mean±SD of three experimental replicates. FIG. 11E provides confocal micrographs of BDNF induction by ectopic expression of dCas9-Tet1 and a set of 4 gRNAs targeting BDNF promoter IV. Stained in green for BDNF, magenta for MAP2, red for Cherry and blue for DAPI. Note that the lentiviral infection efficiency is close to 100% in these neurons. Scale bar: 50 um. […] Bars represent mean±SD of three experimental replicates. […] FIG. 11J depicts DIV3 mouse cortical neurons were treated with ABT (50 uM) for 6 hours and then treated with KCl (50 mM) for 6-hour before harvest for RT-qPCR analysis. Bars represent mean±SD of three experimental replicates. FIG. 11K depicts DIV3 mouse cortical neurons were treated with 2-Hydroxyglutarate (10 mM) for 2 hours and then treated with KCl (50 mM) for 6-hour before harvest for RT-qPCR analysis. Bars represent mean±SD of three experimental replicates. FIG. 11L depicts DIV3 mouse cortical neurons derived from wild-type or Tet1 knockout E17.5 embryos were subject to time course KCl treatment experiments (6, 9 and 12 h). Bars represent mean±SD of three experimental replicates.
DNA replication-independent active demethylation has been proposed to operate in post-mitotic neurons (Guo et al., 2011; Martinowich et al., 2003). To test whether active demethylation can be induced in post-mitotic neurons, we applied the dCas9-Tet1 system to study the regulation of the BDNF gene. BDNF expression can be induced by neuronal activity accompanied by demethylation of its promoter IV (Chen et al., 2003; Martinowich et al., 2003). We designed 4 gRNAs targeting 11 CpGs in BDNF promoter IV (FIG. 11A) to determine whether dCas9-Tet1 can activate BDNF by inducing demethylation of this promoter (FIG. 3A). Mouse cortical neurons were isolated from E17.5 embryos and cultured for two days in vitro (DIV2) following a well-established experimental procedure for producing primary neuronal culture (Ebert et al., 2013). […] Neurons at day 3 in culture (DIV3) were infected with lentiviral vectors expressing dCas9-Tet1 with or without the 4 gRNAs at almost 100% transduction efficiency (FIG. 11E). At 48-hour post infection some of the cultures were treated with KCl to induce neuronal activity. […] We performed bisulfite sequencing to examine the methylation state of BDNF promoter IV. […]

[1] = with 4 gRNAs targeting BDNF promoter IV, DIV3 neurons, lentiviral infection 2 days

dC-dT: dCas9 fused to an inactive mutant form of Tet1 (H1672Y, D1674A), SEQ ID NO: 160
induction of BDNF expression [1]: no induction

dCas9-Tet1: catalytically inactive Cas9 (dCas9) fused through NLS to the Tet1 catalytic domain, SEQ ID NO: 159; lentivirally expressed with gRNAs
induction of BDNF expression (in the absence of gRNAs, DIV3 neurons, lentiviral infection 2 days): less than 2 fold
induction of BDNF expression [1]: about 6 fold
induction of BDNF expression (with each individual gRNA targeting BDNF promoter IV): 2-3 fold

Source: patent US12060588B2, “Methods of editing DNA methylation” (Whitehead Institute for Biomedical Research, priority 2016, dated 2024)
